In brackets after ≈: the same amount, converted by molar mass. Like-named read-outs stand apart in the source and are kept apart here.
Experiments:
[1] = test system: 14 clinical isolated MRSA strains; test: MIC and FIC index of oxacillin with Tellimagrandin II, clinical isolates; format: cell-based; conditions: Staphylococcus aureus
Method: 14 clinical isolated MRSA strains were tested with oxacillin and Tellimagrandin II (40 μg/mL) and the FIC index was calculated.
(§1) A serial of twofold dilution of the tested antibiotics (oxacillin, erythromycin, ampicillin, kanamycin, levofoxacin, vancomycin and doxycycline) was perform by Broth microdilution method to a final concentration of 2-512 μg/mL. The bacterial overnight culture was collected and re-suspended in the Muller-Hilton (M-H) broth. An aliquot of cell suspension (OD600=0.1) was prepared. The bacterial suspensions were plated in 96-well plate and incubated with test antibiotics at 37° C. in a 5% CO2 incubator (Table 1 to Table 4).
(§2) The […], […] and antagonism between two drugs was evaluated by the following formula:
(§3) [formula] The criteria of fractional inhibitory concentration index: […]

[2] = test system: MSSA (Methicillin-susceptible Staphylococcus aureus); test: Minimum inhibitory concentration (broth microdilution) and FIC index; format: cell-based
Method: as §1, §2, §3

[3] = test system: standard MRSA strain (ATCC 33591); test: Minimum inhibitory concentration (broth microdilution); format: cell-based, Staphylococcus aureus; conditions: Staphylococcus aureus, Table 1
Method: as §1

[4] = test system: Staphylococcus aureus (MSSA and MRSA strains); test: Synergy of antibiotics with Tellimagrandin II (text summary of Tables 1 to 4); format: cell-based; conditions: Table 2
Method: as §1, §2, §3

MRSA 18271 = test: Minimum inhibitory concentration (broth microdilution) and FIC index; format: cell-based, Staphylococcus aureus
Method: as §1, §2, §3

MRSA 18631 = test: as above; format: cell-based, Staphylococcus aureus
Method: as §1, §2, §3

MRSA 19615 [5] = test: as above; format: cell-based, Staphylococcus aureus
Method: as §1, §2, §3

MRSA 19615 [6] = test: Time-killing curve; format: cell-based, Staphylococcus aureus; conditions: 5 μg/mL alone
Method: MRSA 19615 bacteria were cultured overnight, collected and re-suspended in 25 mL MHB containing TGII and antibiotics of the indicated final concentration. To dilute the samples, samples were taken from the suspension at indicated time interval and mixed with filtered PBS, followed by spreading the diluted sample on MHA plated for two plates/each time point. Colony counts between 150 and 500 colonies in first time point was used to determine the dilution fold. Time-killing curves were calculated from colony counting and data analyzing was performed after overnight culture. Bacterial time-kill curves were constructed by plotting mean colony counts (log10 cfu/mL) versus time (FIGS. 4 and 5).

[7] = Table 3, MSSA, Tellimagrandin II (40 μg/ml) +
[8] = Table 3, 18271, Tellimagrandin II (40 μg/ml) +
[9] = Table 3, 18631, Tellimagrandin II (40 μg/ml) +
[10] = Table 3, 19615, Tellimagrandin II (40 μg/ml) +

Compound `Cc1onc(-c2ccccc2)c1C(=O)N[C@@H]1C(=O)N2[C@@H]1SC(C)(C)[C@@H]2C(=O)O` [Oxacillin] has an MIC ([1]; MRSA 1, oxacillin alone) of 512 µg/mL, an MIC ([1]; MRSA 2, oxacillin alone) of 512 µg/mL and an MIC ([1]; MRSA 3, oxacillin alone) of 512 µg/mL. The MIC ([1]; MRSA 4, oxacillin alone) was 512 µg/mL, the MIC ([1]; MRSA 5, oxacillin alone) was 512 µg/mL and the MIC ([1]; MRSA 6, oxacillin alone) was 256 µg/mL. It also gave an MIC ([1]; MRSA 7, oxacillin alone) of 256 µg/mL, an MIC ([1]; MRSA 8, oxacillin alone) of 128 µg/mL and an MIC ([1]; MRSA 9, oxacillin alone) of 128 µg/mL. For the same compound, the MIC ([1]; MRSA 10, oxacillin alone) was 64 µg/mL, the MIC ([1]; MRSA 11, oxacillin alone) was 64 µg/mL and the MIC ([1]; MRSA 12, oxacillin alone) was 64 µg/mL. For the same compound, the MIC ([1]; MRSA 13, oxacillin alone) was 64 µg/mL, the MIC ([1]; MRSA 14, oxacillin alone) was 32 µg/mL and the MIC ([2]; Staphylococcus aureus, MSSA, Table 1, MSSA, read-out: Minimum inhibitory concentration) was 4 µg/mL. It also gave an MIC ([2]; Staphylococcus aureus, MSSA, Table 2, Non-drug resistant Staphylococcus aureus, with TG II 30 μg/mL, read-out: MIC) of less than 2 µg/mL, an MIC ([2]; Staphylococcus aureus, MSSA, Table 2, Non-drug resistant Staphylococcus aureus, with TG II 40 μg/mL, read-out: MIC) of less than 2 µg/mL and an MIC ([2]; Staphylococcus aureus, MSSA, Table 2, Non-drug resistant Staphylococcus aureus, without TG II, read-out: MIC) of 4 µg/mL. For the same compound, the MIC ([2]; Staphylococcus aureus, MSSA, Table 3, MSSA, Tellimagrandin II (40 μg/ml) −, read-out: MIC) was 4 µg/mL, the FIC ([2]; Table 2, Non-drug resistant Staphylococcus aureus, with TG II 30 μg/mL) was 0.5 and the FIC ([2]; Table 2, Non-drug resistant Staphylococcus aureus, with TG II 40 μg/mL) was 0.5. It also gave an FIC [2, 7] of 0.5, an MIC [2, 7] of 2 µg/mL and an MIC [3] of 512 µg/mL (≈ 1280 µM). For the same compound, the “effect of antibiotic with Tellimagrandin II” value [4] was “synergistic effect”, the MIC (MRSA 18271; Staphylococcus aureus, MRSA, Table 1, MRSA 18271, read-out: Minimum inhibitory concentration) was greater than 512 µg/mL and the MIC (MRSA 18271; Staphylococcus aureus, MRSA, Table 2, 18271, with TG II 30 μg/mL, read-out: MIC) was 32 µg/mL. It also gave an MIC (MRSA 18271; Staphylococcus aureus, MRSA, Table 2, 18271, with TG II 40 μg/mL, read-out: MIC) of 16 µg/mL, an MIC (MRSA 18271; Staphylococcus aureus, MRSA, Table 2, 18271, without TG II, read-out: MIC) of 512 µg/mL and an MIC (MRSA 18271; Staphylococcus aureus, MRSA, Table 3, 18271, Tellimagrandin II (40 μg/ml) −, read-out: MIC) of 512 µg/mL. The FIC (MRSA 18271; Table 2, 18271, with TG II 30 μg/mL) was 0.0063, the FIC (MRSA 18271; Table 2, 18271, with TG II 40 μg/mL) was 0.0031 and the FIC (MRSA 18271; [8]) was 0.031. It also gave an MIC (MRSA 18271; [8]) of 16 µg/mL, an MIC (MRSA 18631; Staphylococcus aureus, MRSA, Table 1, MRSA 18631, read-out: Minimum inhibitory concentration) greater than 512 µg/mL and an MIC (MRSA 18631; Staphylococcus aureus, MRSA, Table 2, 18631, with TG II 30 μg/mL, read-out: MIC) of 64 µg/mL. For the same compound, the MIC (MRSA 18631; Staphylococcus aureus, MRSA, Table 2, 18631, with TG II 40 μg/mL, read-out: MIC) was 8 µg/mL, the MIC (MRSA 18631; Staphylococcus aureus, MRSA, Table 2, 18631, without TG II, read-out: MIC) was 512 µg/mL and the MIC (MRSA 18631; Staphylococcus aureus, MRSA, Table 3, 18631, Tellimagrandin II (40 μg/ml) −, read-out: MIC) was 512 µg/mL. For the same compound, the FIC (MRSA 18631; Table 2, 18631, with TG II 30 μg/mL) was 0.125, the FIC (MRSA 18631; Table 2, 18631, with TG II 40 μg/mL) was 0.016 and the FIC (MRSA 18631; [9]) was 0.016. It also gave an MIC (MRSA 18631; [9]) of 8 µg/mL, an MIC (MRSA 19615 [5]; Staphylococcus aureus, MRSA, Table 1, MRSA 19615, read-out: Minimum inhibitory concentration) of 512 µg/mL and an MIC (MRSA 19615 [5]; Staphylococcus aureus, MRSA, Table 2, 19615, with TG II 30 μg/mL, read-out: MIC) of less than 2 µg/mL. It also gave an MIC (MRSA 19615 [5]; Staphylococcus aureus, MRSA, Table 2, 19615, with TG II 40 μg/mL, read-out: MIC) of 4 µg/mL, an MIC (MRSA 19615 [5]; Staphylococcus aureus, MRSA, Table 2, 19615, without TG II, read-out: MIC) of 512 µg/mL and an MIC (MRSA 19615 [5]; Staphylococcus aureus, MRSA, Table 3, 19615, Tellimagrandin II (40 μg/ml) −, read-out: MIC) of 512 µg/mL. For the same compound, the FIC (MRSA 19615 [5]; Table 2, 19615, with TG II 30 μg/mL) was 0.004, the FIC (MRSA 19615 [5]; Table 2, 19615, with TG II 40 μg/mL) was 0.008 and the FIC (MRSA 19615 [5]; [10]) was 0.008. The MIC (MRSA 19615 [5]; [10]) was 4 µg/mL and the “bacterial growth, time-killing curve” value (MRSA 19615 [6]) was “failed to inhibit bacterial growth”.
